The results in this text go back to ChEMBL document CHEMBL3797053, “2-Alkoxy-3-(sulfonylarylaminomethylene)-chroman-4-ones as potent and selective inhibitors of ectonucleotidases” (Eur J Med Chem, 2016).

The source made the active and inactive calls. No cut-off for these calls is given here.

For assay [1], the target named is T1, 5'-nucleotidase (Rattus norvegicus) (UniProt P21588).
T1 sequence (whole entry): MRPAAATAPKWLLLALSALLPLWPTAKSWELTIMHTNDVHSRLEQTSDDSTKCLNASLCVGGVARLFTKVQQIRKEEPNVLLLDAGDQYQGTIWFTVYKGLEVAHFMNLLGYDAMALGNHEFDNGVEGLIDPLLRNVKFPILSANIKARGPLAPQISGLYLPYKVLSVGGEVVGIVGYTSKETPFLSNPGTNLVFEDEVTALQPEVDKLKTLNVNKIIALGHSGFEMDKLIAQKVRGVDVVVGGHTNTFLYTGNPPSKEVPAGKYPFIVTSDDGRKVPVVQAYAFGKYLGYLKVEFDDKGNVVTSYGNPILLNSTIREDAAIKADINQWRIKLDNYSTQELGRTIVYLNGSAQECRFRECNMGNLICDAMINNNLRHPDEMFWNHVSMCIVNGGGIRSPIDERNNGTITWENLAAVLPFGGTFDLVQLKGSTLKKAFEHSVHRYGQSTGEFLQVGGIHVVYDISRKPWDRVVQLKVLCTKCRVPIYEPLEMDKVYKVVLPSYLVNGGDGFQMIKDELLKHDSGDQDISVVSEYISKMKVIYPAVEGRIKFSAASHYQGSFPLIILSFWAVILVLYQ
In words: Inhibition of rat Ecto-5'-nucleotidase transfected in COS7 cells at 1 mM preincubated for 10 mins followed by AMP addition measured after 10 mins. It is filed as cell-based. The conditions noted are these: COS-7.

The species entered for a further assay is Bos taurus. Put plainly: Selectivity ratio of Ki for calf intestinal alkaline phosphatase to Ki for bovine tissue non-specific alkaline phosphatase.
The target in assay [2] is Intestinal-type alkaline phosphatase (Bos taurus, UniProt P19111). Put plainly: Inhibition of calf intestinal alkaline phosphatase preincubated for 3 to 5 mins followed by CDP-star substrate addition measured after 15 mins by luminescence assay.
Assay [3] deals with T2, Alkaline phosphatase, tissue-nonspecific isozyme (Bos taurus) (UniProt P09487).
T2 sequence (whole entry): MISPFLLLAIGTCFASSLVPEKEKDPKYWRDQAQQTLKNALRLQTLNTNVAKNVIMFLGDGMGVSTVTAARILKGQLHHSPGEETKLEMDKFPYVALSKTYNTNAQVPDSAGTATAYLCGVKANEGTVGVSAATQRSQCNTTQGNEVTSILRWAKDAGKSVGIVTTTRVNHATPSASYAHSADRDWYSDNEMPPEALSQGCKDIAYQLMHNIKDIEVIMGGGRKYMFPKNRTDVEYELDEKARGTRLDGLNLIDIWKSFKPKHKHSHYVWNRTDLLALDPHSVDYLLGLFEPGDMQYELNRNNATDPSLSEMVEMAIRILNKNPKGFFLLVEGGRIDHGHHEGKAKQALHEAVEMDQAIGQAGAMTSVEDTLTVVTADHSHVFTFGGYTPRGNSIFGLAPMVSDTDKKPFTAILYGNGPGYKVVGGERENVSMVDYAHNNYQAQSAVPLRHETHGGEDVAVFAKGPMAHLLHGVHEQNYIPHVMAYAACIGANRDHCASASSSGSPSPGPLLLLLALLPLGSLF
Put plainly: Competitive inhibition of bovine tissue non-specific alkaline phosphatase at 0.5 to 2 uM preincubated for 3 to 5 mins followed by CDP-star substrate addition measured after 15 mins by double-reciprocal plot analysis.

Assay [4] addresses T3, 5'-nucleotidase (Homo sapiens, UniProt P21589). Put plainly: Inhibition of human Ecto-5'-nucleotidase transfected in COS7 cells at 1 mM preincubated for 10 mins followed by AMP addition measured after 10 mins. It is filed as cell-based. To be noted: COS-7.
For assay [5], the target named is T4, Alkaline phosphatase, tissue-nonspecific isozyme (Bos taurus, UniProt P09487).
T4 sequence (P09487 whole entry): T2 sequence (whole entry)
Put plainly: Inhibition of bovine tissue non-specific alkaline phosphatase preincubated for 3 to 5 mins followed by CDP-star substrate addition measured after 15 mins by luminescence assay.

The target of assay [6] is T1, 5'-nucleotidase (Rattus norvegicus). The conditions noted are these: COS-7, 0.5 to 2 uM.
Description: Uncompetitive inhibition of rat Ecto-5'-nucleotidase transfected in COS7 cells at 0.5 to 2 uM preincubated for 10 mins followed by AMP addition measured after 10 mins by double-reciprocal plot analysis
Assay [7] concerns the target T5, 5'-nucleotidase (Rattus norvegicus, UniProt P21588).
T5 sequence (P21588 whole entry): T1 sequence (whole entry)
In words: Inhibition of rat Ecto-5'-nucleotidase transfected in COS7 cells preincubated for 10 mins followed by AMP addition measured after 10 mins. Type of assay: cell-based, COS-7.

The target of assay [8] is T3, 5'-nucleotidase. Put plainly: Inhibition of human Ecto-5'-nucleotidase transfected in COS7 cells preincubated for 10 mins followed by AMP addition measured after 10 mins. It is filed as cell-based, COS-7.
Assay [9] addresses Intestinal-type alkaline phosphatase (Bos taurus) (UniProt P19111). To be noted: 0.5 to 2 uM.
Description: Competitive inhibition of calf intestinal alkaline phosphatase at 0.5 to 2 uM preincubated for 3 to 5 mins followed by CDP-star substrate addition measured after 15 mins by double-reciprocal plot analysis
The target of assay [10] is T2, Alkaline phosphatase, tissue-nonspecific isozyme (Bos taurus). In words: Inhibition of bovine tissue non-specific alkaline phosphatase at 0.2 mM preincubated for 3 to 5 mins followed by CDP-star substrate addition measured after 15 mins by luminescence assay.
The target of assay [11] is T3, 5'-nucleotidase. To be noted: COS-7, 0.5 to 2 uM.

T3 sequence (P21589 whole entry): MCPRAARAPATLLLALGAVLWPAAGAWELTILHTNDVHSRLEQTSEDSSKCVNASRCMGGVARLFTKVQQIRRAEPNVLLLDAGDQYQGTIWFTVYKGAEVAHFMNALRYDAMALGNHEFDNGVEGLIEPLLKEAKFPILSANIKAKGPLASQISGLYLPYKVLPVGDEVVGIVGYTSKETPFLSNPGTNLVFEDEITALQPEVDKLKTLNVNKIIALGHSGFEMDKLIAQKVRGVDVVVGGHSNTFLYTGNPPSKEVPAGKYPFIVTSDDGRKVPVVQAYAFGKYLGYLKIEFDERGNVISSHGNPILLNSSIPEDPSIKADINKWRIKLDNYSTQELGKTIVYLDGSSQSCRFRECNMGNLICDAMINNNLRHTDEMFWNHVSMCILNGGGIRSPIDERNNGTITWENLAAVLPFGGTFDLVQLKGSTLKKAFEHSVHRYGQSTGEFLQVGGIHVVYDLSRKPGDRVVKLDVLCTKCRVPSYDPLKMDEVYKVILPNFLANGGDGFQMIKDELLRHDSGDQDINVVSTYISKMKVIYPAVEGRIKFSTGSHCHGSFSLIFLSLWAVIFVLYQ
Chain of Intestinal-type alkaline phosphatase (P19111 whole entry): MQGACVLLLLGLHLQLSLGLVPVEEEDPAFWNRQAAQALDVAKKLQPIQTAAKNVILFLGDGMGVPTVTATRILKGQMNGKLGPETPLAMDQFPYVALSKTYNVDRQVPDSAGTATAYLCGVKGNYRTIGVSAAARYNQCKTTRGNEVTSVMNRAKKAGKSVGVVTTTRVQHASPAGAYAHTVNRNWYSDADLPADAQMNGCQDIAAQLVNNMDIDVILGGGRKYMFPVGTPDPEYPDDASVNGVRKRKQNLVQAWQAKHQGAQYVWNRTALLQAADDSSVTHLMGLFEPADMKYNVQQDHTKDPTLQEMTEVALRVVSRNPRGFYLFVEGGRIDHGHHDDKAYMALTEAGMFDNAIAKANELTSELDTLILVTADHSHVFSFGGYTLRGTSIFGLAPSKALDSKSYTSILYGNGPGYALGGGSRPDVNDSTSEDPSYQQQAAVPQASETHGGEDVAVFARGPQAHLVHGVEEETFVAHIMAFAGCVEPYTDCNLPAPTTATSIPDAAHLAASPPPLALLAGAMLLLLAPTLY
Chain of Intestinal-type alkaline phosphatase (Bos taurus) (P19111 20-506 limits assumed): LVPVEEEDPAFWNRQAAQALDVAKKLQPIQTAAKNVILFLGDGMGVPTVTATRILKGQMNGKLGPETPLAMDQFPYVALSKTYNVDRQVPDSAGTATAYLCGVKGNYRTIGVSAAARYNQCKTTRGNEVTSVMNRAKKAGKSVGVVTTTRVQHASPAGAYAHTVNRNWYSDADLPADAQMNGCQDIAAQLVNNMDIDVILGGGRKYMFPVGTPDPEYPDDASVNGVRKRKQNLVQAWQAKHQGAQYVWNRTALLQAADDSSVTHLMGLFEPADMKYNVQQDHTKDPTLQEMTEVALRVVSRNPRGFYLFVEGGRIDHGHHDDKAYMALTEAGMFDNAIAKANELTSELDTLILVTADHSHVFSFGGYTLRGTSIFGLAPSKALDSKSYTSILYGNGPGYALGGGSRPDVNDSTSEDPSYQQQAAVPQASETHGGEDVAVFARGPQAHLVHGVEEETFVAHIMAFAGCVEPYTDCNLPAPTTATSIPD

Regarding `COC1Oc2ccc(C)cc2C(=O)/C1=C\Nc1ccccc1S(N)(=O)=O` (racemic), the inhibition in assay [1] came out at 47.8%; at 5'-nucleotidase [4], 39.1%. Moreover, the Ratio Ki in the assay filed under Bos taurus turned out to be 28. The IC50 is 5.06 µM in [2] and 0.18 µM in [5]. In addition, the Ki in [2] amounted to 2.18 µM; in [5], 0.078 µM. The inhibition result in [3] was “Active”.

`CCOC1Oc2c(Br)cc(Br)cc2C(=O)/C1=C\Nc1cccc(S(N)(=O)=O)c1` (racemic): the inhibition result in assay [6] was “Active”. For the same compound, at 5'-nucleotidase [7], the IC50 was 0.583 µM and the Ki amounted to 0.027 µM.

In assay [1], `COC1Oc2ccccc2C(=O)/C1=C\Nc1ccc(S(N)(=O)=O)cc1` (racemic) displayed an inhibition of 27.7%. Further, the IC50 against 5'-nucleotidase [8] came to 7.11 µM; in [2], 0.565 µM; in [5], 171 µM. Further, the Ki at 5'-nucleotidase [8] worked out at 0.338 µM; in assay [2], 0.24 µM; in assay [5], 72.9 µM. Also, the inhibition result in assay [9] is “Active”.

On to `COC1Oc2ccc(Cl)cc2C(=O)/C1=C\Nc1ccccc1S(N)(=O)=O` (racemic), for which the results for the IC50 (against 5'-nucleotidase [8]; in [2]; against 5'-nucleotidase [7]) were 1.35 µM, 2.32 µM and 1.31 µM, respectively. For the same compound, the Ki at 5'-nucleotidase [8] was found to be 0.064 µM; in assay [2], 0.992 µM; at 5'-nucleotidase [7], 0.062 µM. Besides, the inhibition in [10] came out at 29.9%.

Consider `CC(C)OC1Oc2ccccc2C(=O)/C1=C\Nc1cccc(S(N)(=O)=O)c1` (racemic), for which, in assay [1], the inhibition worked out at 25.7%. Besides, the figures for the IC50 (on 5'-nucleotidase [8]; in assay [2]; in [5]) were 0.287 µM, 17.9 µM and 111 µM, respectively. Also, the inhibitory constant (Ki) on 5'-nucleotidase [8] was 0.014 µM; in assay [2], 7.66 µM; in [5], 47.5 µM. The inhibition result on 5'-nucleotidase [11] is “Active”.

In the case of `COC1Oc2ccccc2C(=O)/C1=C\Nc1cccc(S(N)(=O)=O)c1` (racemic), the IC50 at 5'-nucleotidase [8] was found to be 0.38 µM; in assay [2], 39.8 µM; against 5'-nucleotidase [7], 2.81 µM. In addition, the Ki at 5'-nucleotidase [8] was found to be 0.018 µM; in assay [2], 16.9 µM; at 5'-nucleotidase [7] it was 0.134 µM. For the same compound, in assay [10], the inhibition stood at 32.1%.
